Experiments:
[1] = tested on: 3-deoxy-D-arabino-heptulosonate 7-phosphate synthase; assay: feedback inhibition of chloroplast DAHP synthase; assay type: biochemical, higher plants; conditions: higher-plant chloroplasts
Source text: Because L-arogenate regulates aromatic amino acid biosynthesis in the chloroplast by feedback inhibition exerted upon the initial enzyme of aromatic biosynthesis, it provides an excellent point of attack. Application of L-arogenate or an L-arogenate-type compound will cause a serious disturbance of the feedback inhibition mechanism of this crucial metabolic pathway.

[2] = tested on: DAHP synthase isozymes of higher plants; assay: inhibition of DAHP synthase isozymes of higher plants; assay type: biochemical; conditions: two separately compartmented isozymes
Source text: The early amino acid pathway circuit entails the feedback inhibition of 3-deoxy-D-arabinoheptulosonate 7-P (DAHP) synthase by chorismate. Thus, the DAHP synthase of Xanthomonas offers unique target of vulnerability in nature since an appropriate analog mimic of chorismate produces false feedback inhibition of DAHP synthase in Xanthomonas but not in the higher plant host. […] Step two of the claimed process has thus been completed.
The DAHP synthase of xanthomonads is also sensitive to inhibition by L-tryptophan. […] Thus, analog mimics of L-tryptophan attack a second site within the basic DAHP synthase target of Xanthomonas.

[3] = tested on: a variety of bacteria, including N. gonorrhoeae; assay: energy drain / PEP depletion in bacteria after EPSP synthase block; assay type: cell-based
Source text: The enzymic target of N-(phosphonomethyl) glycine action is not present in mammalian systems, therefore, N-(phosphonomethyl) glycine is not toxic to the human host. Because N-(phosphonomethyl) glycine acts on an enzyme which is present in pathogenic bacteria but not in the human host, this compound could be used as an effective control agent for bacterial pathogens.

[4] = tested on: cyclohexadienyl dehydrogenase; assay: substrate utilization by cyclohexadienyl dehydrogenase; assay type: biochemical
Source text: (§1) Therefore, prephenyllactate is an appropriate prephenate analog for the control of phytopathogens.

[5] = tested on: microbial prephenate dehydrogenase; assay: substrate utilization by microbial prephenate dehydrogenase; assay type: biochemical
Source text: as §1

arogenate dehydrogenase = assay: substrate utilization by arogenate dehydrogenase enzymes; assay type: biochemical
Source text: as §1

**Q.** How did the “feedback inhibition of the initial enzyme of aromatic biosynthesis” value [1] turn out when `N[C@@H](CC1(C(=O)O)C=CC(O)C=C1)C(=O)O` (stereo partly drawn) [L-arogenate] was run?
**A.** feedback inhibitor

**Q.** With `N[C@@H](Cc1c[nH]c2ccccc12)C(=O)O` [L-tryptophan] as the molecule, how does the “sensitivity of higher-plant DAHP synthase isozymes to inhibition” value [2] read?
**A.** not affected

**Q.** For `O=C(O)CNCP(=O)(O)O` [N-(phosphonomethyl) glycine], which “drain upon intracellular supplies of PEP” value ([3]; even at microgram levels, shikimate-3-phosphate accumulates) is on record?
**A.** produces a drain upon intracellular supplies of PEP

**Q.** And the “energy drain from depletion of PEP and ATP” value ([3]; variety of bacteria, including N. gonorrhoeae)?
**A.** severe energy drain

**Q.** How did the “sensitivity of higher-plant DAHP synthase isozymes to inhibition” value [2] turn out when `C=C(O[C@@H]1C=C(C(=O)O)C=C[C@H]1O)C(=O)O` [chorismate] was run?
**A.** neither sensitive to inhibition

**Q.** How did the “utilization as substrate by cyclohexadienyl dehydrogenase” value [4] turn out when `O=C(O)C(O)CC1(C(=O)O)C=CC(O)C=C1` (stereo not drawn) [prephenyllactate, β-(1-carboxyl-4-hydroxy-2,5-cyclohexadien-1-yl) lactic acid] was run?
**A.** as a substrate quite well

**Q.** And the “utilization as substrate by microbial prephenate dehydrogenase” value [5]?
**A.** as a substrate quite well

**Q.** What about the “utilization as substrate by arogenate dehydrogenase enzymes” value (arogenate dehydrogenase) of the same molecule?
**A.** do not use prephenyllactate as a substrate

Source: US5187071A, “Method for the selective control of weeds, pests, and microbes” (priority 1988, dated 1993)
